{
  "source": "patent US20250353873A1",
  "about": "“COMPOUNDS AND METHODS FOR MODULATING APOE EXPRESSION” (Ionis Pharmaceuticals, Inc., priority 2024, published 2025)",
  "key": {"human APOE RNA [1]": {"tested_on": "human APOE RNA", "experiment": "Dose-dependent inhibition of human APOE RNA in differentiated SH-SY5Y cells, free uptake, 5 days (Example 5)", "format": "cell-based", "conditions": "5 days (Table 14)", "outline": "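APOE RNA, measured by RTS3073 primer probe set and normalized to human PPIA, is reported as % of untreated control cells, with IC50 fitted. Cells were differentiated SH-SY5Y at 10,000/well, given modified oligonucleotide at several concentrations by free uptake for 5 days.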"}, "human APOE RNA [2]": {"tested_on": "human APOE RNA", "experiment": "Activity in APOE C57BL/6NTac-Apoeem7250 knock-in mice, single ICV bolus, 8 weeks (Example 11)", "format": "in vivo", "conditions": "single ICV bolus 300 μg, 8 weeks post treatment, normalized to mouse Ppia", "outline": "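Cortical and spinal cord human APOE RNA quantified by RT-qPCR 8 weeks after a single 300 μg ICV dose in knock-in mice, Ppia-normalized. Values are percent of levels in PBS-treated animals.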"}, "human APOE RNA [3]": {"tested_on": "human APOE RNA", "experiment": "Dose-dependent reduction of human APOE RNA in HepG2 cells, electroporation, 20,000 cells per well, average of GAPDH- and PPIA-normalized results (Example 4, Table 12)", "format": "cell-based", "conditions": "HepG2, 20,000 cells per well", "outline": "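Modified oligonucleotides at various concentrations were electroporated into HepG2 cells. APOE RNA was quantified by RT-qPCR, normalized separately to GAPDH and PPIA, and the two averaged as % of untreated control; IC50 was calculated from the dose series.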"}, "human APOE RNA [4]": {"tested_on": "human APOE RNA", "experiment": "Potency (dose response, ED50) in APOE C57BL/6NTac-Apoeem7250 knock-in mice, 4 weeks (Example 14)", "format": "in vivo", "outline": "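Knock-in mice (3–4 per group) received a single ICV bolus of oligonucleotide, with PBS as control. At four weeks, cortex and spinal cord RNA was analysed by RT-qPCR with a human primer probe set, normalized to mouse Ppia, and expressed as % PBS control. ED50 was calculated from the dose response.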"}, "human APOE RNA [5]": {"tested_on": "human APOE RNA", "experiment": "Activity in APOE C57BL/6NTac-Apoeem7250 knock-in mice, single ICV bolus, 4 weeks (Example 10)", "format": "in vivo", "conditions": "single ICV bolus 300 μg, 4 weeks post treatment, normalized to mouse Ppia", "outline": "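Human APOE RNA, quantified by real-time RT-PCR with RTS3073 and normalized to mouse Ppia, was read in cortical brain and spinal cord 4 weeks post dosing. Dosing was a single ICV bolus of 300 μg per knock-in mouse; values are % of PBS-treated animals.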"}},
  "note": "pIC50: −log10 of the molar value. Strand notation (5' to 3'): a small letter for the sugar, then the base; units joined by * are phosphorothioate-linked, units joined directly phosphodiester-linked; [ ] holds rarer units or linkages, { } end groups; capitals alone tell only the bases. [ms] = mesyl phosphoramidate linkage; k = constrained ethyl (cEt); [5mC] = 5-methylcytosine; d = 2'-deoxy (DNA)",
  "data": [
    {"substance": "1746809 (k[5mC]*dT[ms]kT*dG[ms]kG*dT[ms]dG[ms]dA[ms]dA[ms]dT*d[5mC]*dT*dT*dT*dA[ms]dT*dT[ms]kA*kA*kA; antisense) [Compound 1746809]", "values": [
      {"measurement": "APOE RNA (% UTC)", "setting": "human APOE RNA [1]; 5 nM", "value": 93, "unit": "% UTC"},
      {"measurement": "APOE RNA (% UTC)", "setting": "human APOE RNA [1]; 13 nM", "value": 118, "unit": "% UTC"},
      {"measurement": "APOE RNA (% UTC)", "setting": "human APOE RNA [1]; 33 nM", "value": 80, "unit": "% UTC"},
      {"measurement": "APOE RNA (% UTC)", "setting": "human APOE RNA [1]; 82 nM", "value": 68, "unit": "% UTC"},
      {"measurement": "APOE RNA (% UTC)", "setting": "human APOE RNA [1]; 205 nM", "value": 77, "unit": "% UTC"},
      {"measurement": "APOE RNA (% UTC)", "setting": "human APOE RNA [1]; 512 nM", "value": 57, "unit": "% UTC"},
      {"measurement": "APOE RNA (% UTC)", "setting": "human APOE RNA [1]; 1,280 nM", "value": 31, "unit": "% UTC"},
      {"measurement": "APOE RNA (% UTC)", "setting": "human APOE RNA [1]; 3,200 nM", "value": 34, "unit": "% UTC"},
      {"measurement": "APOE RNA (% UTC)", "setting": "human APOE RNA [1]; 8,000 nM", "value": 12, "unit": "% UTC"},
      {"measurement": "APOE RNA (% UTC)", "setting": "human APOE RNA [1]; 20,000 nM", "value": 8, "unit": "% UTC"},
      {"measurement": "pIC50", "setting": "human APOE RNA [1]", "value": 6.18},
      {"measurement": "APOE RNA (% control) Cortex", "setting": "human APOE RNA [2]; cortex", "value": 47, "unit": "% control"},
      {"measurement": "APOE RNA (% control) Spinal Cord", "setting": "human APOE RNA [2]; spinal cord", "value": 44, "unit": "% control"},
      {"measurement": "APOE RNA (% UTC)", "setting": "human APOE RNA [3]; 5 nM", "value": 97, "unit": "% UTC"},
      {"measurement": "APOE RNA (% UTC)", "setting": "human APOE RNA [3]; 13 nM", "value": 94, "unit": "% UTC"},
      {"measurement": "APOE RNA (% UTC)", "setting": "human APOE RNA [3]; 33 nM", "value": 86, "unit": "% UTC"},
      {"measurement": "APOE RNA (% UTC)", "setting": "human APOE RNA [3]; 82 nM", "value": 72, "unit": "% UTC"},
      {"measurement": "APOE RNA (% UTC)", "setting": "human APOE RNA [3]; 205 nM", "value": 59, "unit": "% UTC"},
      {"measurement": "APOE RNA (% UTC)", "setting": "human APOE RNA [3]; 512 nM", "value": 34, "unit": "% UTC"},
      {"measurement": "APOE RNA (% UTC)", "setting": "human APOE RNA [3]; 1,280 nM", "value": 28, "unit": "% UTC"},
      {"measurement": "APOE RNA (% UTC)", "setting": "human APOE RNA [3]; 3,200 nM", "value": 11, "unit": "% UTC"},
      {"measurement": "APOE RNA (% UTC)", "setting": "human APOE RNA [3]; 8,000 nM", "value": 15, "unit": "% UTC"},
      {"measurement": "APOE RNA (% UTC)", "setting": "human APOE RNA [3]; 20,000 nM", "value": 10, "unit": "% UTC"},
      {"measurement": "pIC50", "setting": "human APOE RNA [3]; approximately 24 hours", "value": 6.51},
      {"measurement": "APOE RNA (% control) Cortex", "setting": "human APOE RNA [4]; cortex, ICV dose 10 μg", "value": 98, "unit": "% control"},
      {"measurement": "APOE RNA (% control) Cortex", "setting": "human APOE RNA [4]; cortex, ICV dose 30 μg", "value": 89, "unit": "% control"},
      {"measurement": "APOE RNA (% control) Cortex", "setting": "human APOE RNA [4]; cortex, ICV dose 100 μg", "value": 79, "unit": "% control"},
      {"measurement": "APOE RNA (% control) Cortex", "setting": "human APOE RNA [4]; cortex, ICV dose 300 μg", "value": 57, "unit": "% control"},
      {"measurement": "APOE RNA (% control) Cortex", "setting": "human APOE RNA [4]; cortex, ICV dose 700 μg", "value": 41, "unit": "% control"},
      {"measurement": "ED 50 (μg) Cortex", "setting": "human APOE RNA [4]; cortex, single ICV bolus, GraphPad Prism 10", "value": 446.6, "unit": "µg"},
      {"measurement": "APOE RNA (% control) Spinal Cord", "setting": "human APOE RNA [4]; spinal cord, ICV dose 10 μg", "value": 105, "unit": "% control"},
      {"measurement": "APOE RNA (% control) Spinal Cord", "setting": "human APOE RNA [4]; spinal cord, ICV dose 30 μg", "value": 92, "unit": "% control"},
      {"measurement": "APOE RNA (% control) Spinal Cord", "setting": "human APOE RNA [4]; spinal cord, ICV dose 100 μg", "value": 59, "unit": "% control"},
      {"measurement": "APOE RNA (% control) Spinal Cord", "setting": "human APOE RNA [4]; spinal cord, ICV dose 300 μg", "value": 48, "unit": "% control"},
      {"measurement": "APOE RNA (% control) Spinal Cord", "setting": "human APOE RNA [4]; spinal cord, ICV dose 700 μg", "value": 64, "unit": "% control"},
      {"measurement": "ED 50 (μg) Spinal Cord", "setting": "human APOE RNA [4]; spinal cord, single ICV bolus, GraphPad Prism 10", "value": 652.7, "unit": "µg"},
      {"measurement": "APOE RNA (% control) Cortex", "setting": "human APOE RNA [5]; cortex", "value": 36, "unit": "% control"},
      {"measurement": "APOE RNA (% control) Spinal Cord", "setting": "human APOE RNA [5]; spinal cord", "value": 59, "unit": "% control"}
    ]}
  ]
}
